Patent publication US20260240901A1, “COMBINATION OF NITROUS OXIDE AND 5-HT2A RECEPTOR AGONISTS” (Cybin IRL Limited, priority 2022, published 2026)
Like-named read-outs stand apart in the source and are kept apart here.

Experiments:
[1] = Plasma pharmacokinetics of co-administered DMT and DMT-d10 in male rats (IV bolus, oral gavage, inhalation); settings: for time of highest plasma concentration (first time point taken): IV bolus 1 mg/kg each; for time of highest plasma concentration (first time point taken) / mean residence time (MRT) after inhalation compared to IV administration: male rats; for F (bioavailability), inhalation: inhalation 14.3 (DMT) + 15.5 (DMT-d10) mg/kg, calculated from dose normalized AUC0-1 mean values vs Group 4 IV; for mean residence time (MRT) after inhalation compared to IV administration: inhalation vs IV; for AUC0-1/dose: plasma
[2] = biological target: T1, serotonin 5-HT2A receptor (Mus musculus, UniProt P35363); assay: Head twitch response (HTR) in mice, DMT-d10 with or without N2O; format: in vivo, mice (C57B16/J); settings: DMT-d10 5.6 mg/kg s.c.; for head twitch responses (HTRs), result in words: mice, room air or N2O 50%, first 30 minutes; for Mean rank diff., total HTRs: Dunn's multiple comparisons, Veh/Air vs. treatment, N2O 50% inhaled
T1 construct: Mice were exposed to a medium dose of the 5-HT2A agonist DMT-d10; from tissue; host or cells: living adult male C57Bl6/J mice (in vivo behavioural assay)
T1 sequence (P35363 whole entry): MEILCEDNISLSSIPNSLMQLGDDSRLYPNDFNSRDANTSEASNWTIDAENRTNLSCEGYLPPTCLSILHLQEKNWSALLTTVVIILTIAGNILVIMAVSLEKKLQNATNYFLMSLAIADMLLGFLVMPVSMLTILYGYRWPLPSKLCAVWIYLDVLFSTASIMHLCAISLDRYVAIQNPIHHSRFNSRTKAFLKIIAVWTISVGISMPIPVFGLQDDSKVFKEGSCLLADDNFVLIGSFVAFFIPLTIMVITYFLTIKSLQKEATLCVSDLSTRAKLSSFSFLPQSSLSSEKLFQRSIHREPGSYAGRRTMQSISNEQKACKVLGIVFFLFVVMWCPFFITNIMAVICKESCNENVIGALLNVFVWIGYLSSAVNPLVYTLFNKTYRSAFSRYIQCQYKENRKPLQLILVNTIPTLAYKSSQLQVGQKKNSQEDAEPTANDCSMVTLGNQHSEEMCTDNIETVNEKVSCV
Method: Experiment 1—Effect of N2O on the pharmacodynamic effects of DMT-d10. The dose-dependent behavioral effects of N2O on DMT-d10-induced head twitch response (HTR) in mice was determined.
Rationale: The head-twitch response (HTR) is a rapid side-to-side head movement that occurs in mice and rats after the serotonin 5-HT2A receptor is activated. The HTR is widely used as a behavioral assay for 5-HT2A activation and to probe for interactions between the 5-HT2A receptor and other transmitter systems (see Halberstadt, A. L. & Geyer, M. A. Characterization of the head-twitch response induced by hallucinogens in mice: detection of the behavior based on the dynamics of head movement. Psychopharmacology (Berl) 227, 10.1007/s00213-013-3006-z (2013); Canal, C. E. & Morgan, D. Head-twitch response in rodents induced by the hallucinogen 2,5-dimethoxy-4-iodoamphetamine: a comprehensive history, a re-evaluation of mechanisms, and its utility as a model. Drug Test Anal 4, 556-576 (2012)).
Data analysis: The number of head twitches over the first 30 minutes was summed (0-15 minutes, 15-30 minutes intervals) and analyzed by non-parametric Kruskal Wallis test with Dunn's multiple comparison tests between groups.

[3] = tested on: Adult Male Laboratory Mice (C57B16/J); assay: Locomotor activity (distance travelled, Ethovision) in mice; format: in vivo; settings: DMT-d10 5.6 mg/kg s.c.; for Mean rank diff., total distance travelled: Dunn's multiple comparisons, Veh/Air vs. treatment, N2O 50% inhaled
[4] = tested on: early growth response protein 2 (egr2); assay: RTqPCR gene expression in mouse left frontal cortex: egr2; settings: 60 min treatment + 60 min room air, DMT-d10 5.6 mg/kg s.c., N2O 50% inhaled
bdnf = assay: RTqPCR gene expression in mouse left frontal cortex: bdnf; format: in vivo, mice (C57B16/J); settings: 60 min treatment + 60 min room air, DMT-d10 5.6 mg/kg s.c., N2O 50% inhaled
homer1 = assay: RTqPCR gene expression in mouse left frontal cortex: homer1; format: in vivo, mice (C57B16/J); settings: 60 min treatment + 60 min room air, DMT-d10 5.6 mg/kg s.c., N2O 50% inhaled
[5] = Brain pharmacokinetics of co-administered DMT and DMT-d10 in male rats (IV bolus); format: in vivo, Sprague Dawley rats; settings: for Brain Cmax: IV bolus 1 mg/kg each, co-dosed (Group 4)
Method: Experimental Design. This was a single dose study with 4 treatment groups as outlined in Table 1.
Sampling collection. PK samples (0.3 mL) were collected from the jugular vein by venepuncture into tubes containing K2EDTA anticoagulant at the following sampling times: Group 1 (IV) and Group 2 (oral) serial plasma collection at 0.083, 0.25, 0.5, 1, 3, 8 and 24 hr postdose; Group 4 (IV) composite plasma and brain collection at 0.083, 0.25, 0.5 and 1 hr postdose; Group 6 (inhalation) serial plasma collection at 0.333, 0.533, 0.833, 1.333, 3.333, 8.333 and 24.333 after start of inhalation.
Brain samples: After extraction of whole brain from the cranium, brains were rinsed, patted dry, weighed, placed into tubes and frozen on dry ice. Thereafter, they were stored at −70 […] pending analysis.
Bioanalysis. Plasma and brain homogenates were analyzed for DMT and DMT-d10 using an established LC-MS/MS assay.) Pharmacokinetic parameters were determined from the DMT and DMT-d 10 plasma and brain concentration-time profiles using commercially available software (Phoenix® WinNonlin®).

[6] = tested on: serum/glucocorticoid regulated kinase 1 (sgk1); assay: RTqPCR gene expression in mouse left frontal cortex: sgk1; settings: 60 min treatment + 60 min room air, DMT-d10 5.6 mg/kg s.c., N2O 50% inhaled
[7] = tested on: fibroblast growth factor 2 (fgf2); assay: RTqPCR gene expression in mouse left frontal cortex: fgf2; settings: 60 min treatment + 60 min room air, DMT-d10 5.6 mg/kg s.c., N2O 50% inhaled
syn1 = assay: RTqPCR gene expression in mouse left frontal cortex: syn1; format: in vivo, mice (C57B16/J); settings: 60 min treatment + 60 min room air, DMT-d10 5.6 mg/kg s.c., N2O 50% inhaled
c-fos = assay: RTqPCR gene expression in mouse left frontal cortex: c-fos; settings: 60 min treatment + 60 min room air, DMT-d10 5.6 mg/kg s.c., N2O 50% inhaled
[8] = rats, intraperitoneal injection; cited from earlier work
neural oscillations = assay: Experiment 7: topographic pharmaco-EEG mapping of N2O+DMT (planned); settings: healthy humans, following DMT administration
[9] = tested on: head-twitch responses (HTRs); settings: 1 mg/kg, intraperitoneal, rats and mice; cited from earlier work
human participants = settings: cited from earlier work
[10] = in vivo; cited from earlier work
[11] = human, intravenous; cited from earlier work
[12] = Inhalation 14.3 (DMT) / 15.5 (DMT-d10) mg/kg
[13] = brain, male rats, IV bolus 1 mg/kg each (Group 4)
[14] = IV bolus of DMT (as fumarate salt) 0.05-0.4 mg/kg

## [2H]C([2H])([2H])N(C([2H])([2H])[2H])C([2H])([2H])C([2H])([2H])c1c[nH]c2ccccc12 [DMT-d10]
[1]; DMT-d10 vs. DMT, inhalation, rats
  increase of inhalation bioavailability by deuteration: approximately 40%
[1]
  time of highest plasma concentration (first time point taken): 0.083 h
  F (bioavailability), inhalation: 22.6%
  mean residence time (MRT) after inhalation compared to IV administration: approximately 5 ×
[1]; [12]
  AUC0-1/dose: 17.0
[1]; Intravenous 1 mg/kg each
  AUC0-1/dose: 75.4
[1]; Oral 10 mg/kg each
  AUC0-1/dose: 0.878
[2]
  head twitch responses (HTRs), result in words: modest number of HTRs
[2]; minutes 0-15
  Mean rank diff., total HTRs: −22.65
[2]; minutes 15-30
  Mean rank diff., total HTRs: −12.80
[3]; mice, room air or N2O 50%, minutes 0-15 and 15-30
  distance travelled (locomotor behavior), result in words: travelled less distance than the vehicle/air group
[3]; minutes 0-15
  Mean rank diff., total distance travelled: 16.50
[3]; minutes 15-30
  Mean rank diff., total distance travelled: 19.30
[4]
  egr2 gene expression, percentage change compared to control (Veh/Air), % mean: 8.24%
bdnf
  bdnf gene expression, percentage change compared to control (Veh/Air), % mean: −9.25%
homer1
  homer1 gene expression, percentage change compared to control (Veh/Air), % mean: 2.44%
[5]; DMT-d10 vs. DMT, IV 1 mg/kg, rats
  improvement of brain to plasma (B/P) ratio by deuteration: approximately 30%
[5]; [13]
  Brain AUC0-t: 931 ng·h/g
[5]; brain, male rats
  Brain Cmax: 1490 ng/g
[6]
  sgk1 gene expression, percentage change compared to control (Veh/Air), % mean: 15.58%
[7]
  fgf2 gene expression, percentage change compared to control (Veh/Air), % mean: 3.13%
syn1
  syn1 gene expression, percentage change compared to control (Veh/Air), % mean: 1.47%
c-fos
  c-fos gene expression, percentage change compared to control (Veh/Air), % mean: 18.57%

## CN(C)CCc1c[nH]c2ccccc12 [DMT, N,N-dimethyltryptamine]
[1]
  time of highest plasma concentration (first time point taken): 0.083 h
  F (bioavailability), inhalation: 16.3%
  mean residence time (MRT) after inhalation compared to IV administration: approximately 5 ×
[1]; [12]
  AUC0-1/dose: 18.2
[1]; Intravenous 1 mg/kg each
  AUC0-1/dose: 112
[1]; Oral 10 mg/kg each
  AUC0-1/dose: 1.52
[8]
  half-life: 5 to 15 min
  time to be metabolized and cleared from brain, liver, and plasma: ≤ 1 h
Neural oscillations
  absolute power in EEG frequency bands: decreased absolute power in all frequency bands
[9]
  hallucinogenic potential as measured by head-twitch responses (HTRs): sub-hallucinogenic
[5]; [13]
  Brain AUC0-inf: 1070 ng·h/g
  Brain AUC0-t: 1060 ng·h/g
[5]; brain, male rats
  Brain Cmax: 3430 ng/g
Human participants; 0.1 mg/kg IV
  hallucinogenic effect: not hallucinogenic
Human participants; 0.2 and 0.4 mg/kg IV
  hallucinogenic effect: nearly instantaneous onset of visual hallucinatory phenomena
Human participants; [14]
  time by which psycho-biological effects resolve: ≤ 30 minutes
  time of peak of psycho-biological effects: 120 seconds
Human participants; vaporized or inhaled free-base, 40-50 mg
  duration of effect of vaporized DMT: less than 30 min
[10]
  elimination half-life: 12 to 19 min
[11]
  half-life: around 15 minutes
  time to peak plasma concentrations: approximately 2 minutes

## [N-]=[N+]=O [N2O, nitrous oxide]
[2]
  head twitch responses (HTRs), result in words: attenuates DMT-d10-induced HTRs
[2]; minutes 0-15
  Mean rank diff., total HTRs: −1.250
[2]; minutes 15-30
  Mean rank diff., total HTRs: 0.000
[3]; minutes 0-15
  Mean rank diff., total distance travelled: −11.40
[3]; minutes 15-30
  Mean rank diff., total distance travelled: −8.000
[4]
  egr2 gene expression, percentage change compared to control (Veh/Air), % mean: 38.30%
bdnf
  bdnf gene expression, percentage change compared to control (Veh/Air), % mean: 15.67%
homer1
  homer1 gene expression, percentage change compared to control (Veh/Air), % mean: 29.35%
[6]
  sgk1 gene expression, percentage change compared to control (Veh/Air), % mean: 33.82%
[7]
  fgf2 gene expression, percentage change compared to control (Veh/Air), % mean: 5.24%
syn1
  syn1 gene expression, percentage change compared to control (Veh/Air), % mean: 13.38%
c-fos
  c-fos gene expression, percentage change compared to control (Veh/Air), % mean: 32.29%

## COc1ccc2[nH]cc(CCN(C)C)c2c1 [5-MeO-DMT, 5-methoxy-N,N-dimethyltryptamine]
[10]
  elimination half-life: 12 to 19 min
